Earlier results as cited in patent US8697743B2, “Antioxidant camptothecin derivatives and antioxidant antineoplastic nanospheres thereof” (Cedars-Sinai Medical Center, priority 2008, dated 2014).

How the values were obtained:
[1] = 30 minutes after administration

CC[C@@]1(O)C(=O)OCc2c1cc1n(c2=O)Cc2cc3ccccc3nc2-1 [camptothecin, (S)-4-ethyl-4-hydroxy-1H-pyrano-[3′,4′:6,7]indolizino[1,2-b]quinoline-3,14(4H,12H)-dione]
lactone form hydrolyzed to an open ring [1]: 50%
solubility in water: essentially insoluble in water
